Assay in all cases: Antitrypanosomal assay (ATP-based luciferase viability)
Common to all, as to format: cell-based

Experiment [1] relates to T. evansi (Tev) Tansui. The following applies: Trypanosoma evansi, mean ± SD; for inhibition at 0.25 µg/mL: 0.25 μg/ml; for inhibition at 0.25 µg/mL / inhibition at 25 µg/mL: read-out: Inhibition rate; for inhibition at 25 µg/mL: 25 μg/ml; for IC50: 72 h, three days. An excerpt: (§1) Six trypanosome species namely T. b. brucei (Tbb) GuTat3.1, T. b. rhodesiense (Tbr) IL1501, T. b. gambiense (Tbg) IL1922, T. evansi (Tev) Tansui, T. equiperdum (Teq) IVM-t1 and T. congolense (Tc) IL3000 were cultivated using HMI-9 medium and used in the study. Following the procedures reported in Suganuma et al. (2014): “Establishment of ATP-based luciferase viability assay in 96-well plate for Trypanosoma congolense”, J Vet Med Sci 76, 1437-41, the trypanocidal activity of the two compounds discussed herein was assessed at 25 μg/ml or […]. […] The IC50 of the compounds against six trypanosome species was determined using serial dilution in a 96-well plate (Optical bottom plate, ThermoFisher SCIENTIFIC, MA, USA). After three days, 25 μL of CellTiter-GIo Luminescent cell viability reagent (Promega Corporation, WI, USA) was aliquoted into each well and luminosity was measured with a GloMax plate reader (Promega Corporation, WI, USA).
(§2) At first, the compounds were assayed at high and low concentrations of […], respectively (Table 3).
(§3) Given the promising initial antitrypanosomal action of the compounds, the IC50 was measured in the presence of several concentrations of the compound.

The subject of experiment [2] is T. congolense (Tc) IL3000. The following applies: Trypanosoma congolense, TcIL3000, mean ± SD; for IC50: 72 h, three days; for inhibition at 0.25 µg/mL: 0.25 μg/ml; for inhibition at 0.25 µg/mL / inhibition at 25 µg/mL: read-out: Inhibition rate; for inhibition at 25 µg/mL: 25 μg/ml.
Excerpt: as §1, §2, §3

Experiment [3] has as its system T. b. rhodesiense (Tbr) IL1501. The note with it: Trypanosoma brucei, mean ± SD; for IC50: 72 h, TbrIL1501, three days; for inhibition at 0.25 µg/mL: TbrIL1501, 0.25 μg/ml; for inhibition at 0.25 µg/mL / inhibition at 25 µg/mL: read-out: Inhibition rate; for inhibition at 25 µg/mL: TbrIL1501, 25 μg/ml.
Excerpt: as §1, §2, §3

Experiment [4] relates to T. b. brucei (Tbb) GuTat3.1. The note with it: Trypanosoma brucei, TbbGUTat3.1, mean ± SD; for IC50: 72 h, three days; for inhibition at 0.25 µg/mL: 0.25 μg/ml; for inhibition at 0.25 µg/mL / inhibition at 25 µg/mL: read-out: Inhibition rate; for inhibition at 25 µg/mL: 25 μg/ml.
Excerpt: as §1, §2, §3

For experiment [5], the system named is T. equiperdum (Teq) IVM-t1. The following applies: Trypanosoma equiperdum, mean ± SD; for inhibition at 0.25 µg/mL: 0.25 μg/ml; for inhibition at 0.25 µg/mL / inhibition at 25 µg/mL: read-out: Inhibition rate; for inhibition at 25 µg/mL: 25 μg/ml; for IC50: 72 h, three days.
Excerpt: as §1, §2, §3

In experiment [6] the test system is T. b. gambiense (Tbg) IL1922. The note with it: Trypanosoma brucei, mean ± SD; for IC50: 72 h, TbgIL1922, three days; for inhibition at 0.25 µg/mL: TbgIL1922, 0.25 μg/ml; for inhibition at 0.25 µg/mL / inhibition at 25 µg/mL: read-out: Inhibition rate; for inhibition at 25 µg/mL: TbgIL1922, 25 μg/ml.
Excerpt: as §1, §2, §3

For orientation: inhibition means the change of the read-out against control, counted positive when it falls. By IC50 is commonly meant the concentration at which inhibition is half-maximal. The low end stands for higher potency, the high end for lower potency.

Structures are written as SMILES. ≈ marks a conversion by molar mass, not a printed value.

As to `Fc1ccc(-c2cn[nH]c2C2CCCN(c3ncnc4[nH]ccc34)C2)cc1` (stereo not drawn) [Compound 1, 4-{3-[4-(4-fluorophenyl)-1H-pyrazol-5-yl]piperidin-1-yl}-7H-pyrrolo[2,3-d]pyrimidine], the inhibition at 0.25 µg/mL in experiment [1] was determined as 9.14 ± 6.02%; in experiment [2], 8.85 ± 9.99%; in experiment [3], 15.9 ± 11.1%; in experiment [4], 13.2 ± 4.07%; in experiment [5] it was 4.26 ± 6.01%; in experiment [6] it was 2.82 ± 3.98%. The inhibition at 25 µg/mL in experiment [1] stood at 99.1 ± 0.46%; in experiment [2] it was 98.64 ± 0.16%; in experiment [3] it was 99.34 ± 0.01%; in experiment [4], 99.38 ± 0.02%; in experiment [5] it was 99.22 ± 0.01%; in experiment [6], 99.01 ± 0.01%. In addition, the IC50 was 13.3 ± 3.36 µg/mL (≈ 36.8 µM) in experiment [1]; 2.65 ± 0.47 µg/mL (≈ 7.31 µM) in experiment [2]; 5.56 ± 0.13 µg/mL (≈ 15.3 µM) in experiment [3]; 3.53 ± 0.67 µg/mL (≈ 9.74 µM) in experiment [4]; 10.3 ± 0.36 µg/mL (≈ 28.4 µM) in experiment [5]; 3.51 ± 0.9 µg/mL (≈ 9.69 µM) in experiment [6].
In the case of `Fc1ccc(-c2cn[nH]c2C2CCCN(c3ncnc4[nH]cnc34)C2)cc1` (stereo not drawn) [Compound 2, 6-{3-[4-(4-fluorophenyl)-1H-pyrazol-5-yl]piperidin-1-yl}-9H-purine], the inhibition at 0.25 µg/mL is 6.14 ± 7.12% in experiment [1]; 8.09 ± 6.96% in experiment [2]; 11.3 ± 6.63% in experiment [3]; 13.9 ± 3.11% in experiment [4]; 5.2 ± 4.11% in experiment [5]; 1.82 ± 1.45% in experiment [6]. Besides, the inhibition at 25 µg/mL in experiment [1] was determined as 98.7 ± 0.04%; in experiment [2], 98.01 ± 0.2%; in experiment [3], 98.64 ± 0.02%; in experiment [4] it was 99.03 ± 0.02%; in experiment [5], 98.62 ± 0.05%; in experiment [6] it was 98.21 ± 0.02%. For the same compound, the half-maximal inhibitory concentration (IC50) turned out to be 9.26 ± 1.2 µg/mL (≈ 25.5 µM) in experiment [1]; 2.77 ± 0.57 µg/mL (≈ 7.62 µM) in experiment [2]; 4.65 ± 0.25 µg/mL (≈ 12.8 µM) in experiment [3]; 3.66 ± 0.77 µg/mL (≈ 10.1 µM) in experiment [4]; 9.12 ± 0.8 µg/mL (≈ 25.1 µM) in experiment [5]; 3.11 ± 0.88 µg/mL (≈ 8.56 µM) in experiment [6].

The values above are taken from patent US11801249B1, “Broad-spectrum antitrypanosomal compounds” (KING FAISAL UNIVERSITY, priority 2023, dated 2023).
